# Experimental data taken from paper PMC5766609 (Scientific Reports, 2018).
# Residues, ends and D or L forms follow the SMILES beside them.
# Assays:
# [1] = target: T1, human GLP-1 receptor (GLP1R) (Homo sapiens, UniProt P43220); experiment: cAMP assay on CHO-JumpIn cells stably transfected with human GLP-1 receptor (HitHunter cAMP); assay type: cell-based; details: Table 2, cAMP accumulation, buffer PBS, 0.1% BSA, 100 μM RO 20-1724, 20% serum, 1 hr at RT, value ± spread, read-out: EC50 GLP1R;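 note: peptides tested as 4-fold serial dilution series, cells exposed 1 hr at RT in the dark, cAMP quantified against a cAMP standard calibration curve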
# T1 construct: expressed in transfected cells; host or cells: CHO-JumpIn cells, stably transfected
# [2] = target: T2, human glucagon receptor (GCGR) (Homo sapiens, UniProt P47871); experiment: cAMP assay on CHO-JumpIn cells stably transfected with human glucagon receptor (HitHunter cAMP); assay type: cell-based; details: for EC50: Table 2, cAMP accumulation, CHO-JumpIn cells with human GCGR, buffer PBS, 0.1% BSA, 100 μM RO 20-1724, 20% serum, 1 hr at RT, value ± spread, read-out: EC50 GCGR;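 for all read-outs here: peptides tested as 4-fold serial dilutions starting from a 2 µM solution, cells exposed 1 hr at RT in darkness, cAMP quantified against a cAMP standard curve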
# T2 construct: expressed in transfected cells; host or cells: CHO-JumpIn cells, stably transfected
# T2 sequence (P47871 26-477): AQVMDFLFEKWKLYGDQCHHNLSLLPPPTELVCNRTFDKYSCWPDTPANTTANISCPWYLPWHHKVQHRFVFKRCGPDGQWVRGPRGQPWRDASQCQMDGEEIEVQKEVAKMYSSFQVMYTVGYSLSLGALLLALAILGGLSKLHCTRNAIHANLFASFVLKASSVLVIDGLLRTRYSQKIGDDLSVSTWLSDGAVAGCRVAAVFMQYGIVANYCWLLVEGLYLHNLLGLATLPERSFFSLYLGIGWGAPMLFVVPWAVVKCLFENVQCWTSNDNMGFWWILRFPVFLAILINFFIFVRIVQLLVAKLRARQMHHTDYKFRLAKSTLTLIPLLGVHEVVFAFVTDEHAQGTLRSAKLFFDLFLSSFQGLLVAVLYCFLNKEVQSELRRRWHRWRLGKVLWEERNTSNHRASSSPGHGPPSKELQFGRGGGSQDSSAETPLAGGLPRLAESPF
# Description: Briefly, a 2 μM solution of peptide was prepared, and 4-fold serial dilutions were made. 150 nL of the above titration was then dispensed into an Optiplate384 using an Echo555. […] The HitHunter® cAMP Assay kit calibration curve was prepared following the manufacturer’s protocol (DiscoveRx-90-0075L). 30,000 cells/well were added to the peptides, spun briefly at 500 rpm for 15 s and incubated at RT in the dark for 1 hr. The assay was developed as per the manufacturer’s instructions. cAMP accumulation due to GLP1R agonism or GCGR agonism was measured using an EnVision platereader (PerkinElmer), and calibrated using the cAMP standard curve. Data were analyzed using Assay Data Analyzer (ADA).
# T1 sequence (P43220 24-463): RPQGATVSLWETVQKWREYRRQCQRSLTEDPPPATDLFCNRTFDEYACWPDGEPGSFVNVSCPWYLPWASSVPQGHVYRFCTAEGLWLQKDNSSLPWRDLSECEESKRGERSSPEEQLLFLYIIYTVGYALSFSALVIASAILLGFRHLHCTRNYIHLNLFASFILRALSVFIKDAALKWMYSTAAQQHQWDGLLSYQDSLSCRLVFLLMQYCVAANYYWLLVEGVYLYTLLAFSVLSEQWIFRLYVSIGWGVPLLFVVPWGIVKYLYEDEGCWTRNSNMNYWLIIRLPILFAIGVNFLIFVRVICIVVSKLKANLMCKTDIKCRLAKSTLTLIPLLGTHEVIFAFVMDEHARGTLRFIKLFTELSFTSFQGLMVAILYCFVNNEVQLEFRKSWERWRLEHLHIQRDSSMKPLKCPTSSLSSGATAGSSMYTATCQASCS
SMILES,EC50 [1],EC50 [2],activation of the receptors (in words) ([2]; both receptors (GCGR and GLP1R) not activated)
CC[C@H](C)[C@H](NC(=O)[C@H](Cc1ccc(O)cc1)NC(=O)[C@H](CC(=O)O)NC(=O)[C@H](CO)NC(=O)[C@@H](NC(=O)[C@H](Cc1ccccc1)NC(=O)[C@@H](NC(=O)CNC(=O)[C@H](CCC(N)=O)NC(=O)[C@H](CO)NC(=O)[C@@H](N)Cc1c[nH]cn1)[C@@H](C)O)[C@@H](C)O)C(=O)N[C@@H](CCCCN)C(=O)N[C@@H](CC(C)C)C(=O)N[C@@H](CC(C)C)C(=O)N[C@@H](CC(=O)O)C(=O)N[C@@H](CO)C(=O)N[C@@H](CCCNC(=N)N)C(=O)N[C@@H](CCCNC(=N)N)C(=O)N[C@@H](C)C(=O)N[C@@H](CCC(N)=O)C(=O)N[C@@H](CC(=O)O)C(=O)N[C@@H](Cc1ccccc1)C(=O)N[C@H](C(=O)N[C@@H](CCC(N)=O)C(=O)N[C@@H](Cc1c[nH]c2ccccc12)C(=O)N[C@@H](CC(C)C)C(=O)N[C@@H](CCSC)C(=O)N[C@@H](CC(N)=O)C(=O)N[C@H](C(N)=O)[C@@H](C)O)C(C)C [Peptide 7] (H-HSQGTFTSDYIKLLDSRRAQDFVQWLMNT-NH2),78.3 ± 93.8 nM,0.301 ± 0.216 nM,–
CC[C@H](C)[C@H](NC(=O)[C@H](CC(C)C)NC(=O)[C@H](Cc1c[nH]c2ccccc12)NC(=O)[C@H](CCC(N)=O)NC(=O)[C@@H](NC(=O)[C@H](Cc1ccccc1)NC(=O)[C@H](CC(=O)O)NC(=O)[C@H](CCC(N)=O)NC(=O)[C@H](C)NC(=O)[C@H](CCCNC(=N)N)NC(=O)[C@H](CCCNC(=N)N)NC(=O)[C@H](C)NC(=O)[C@H](CC(=O)O)NC(=O)[C@H](CC(C)C)NC(=O)[C@H](Cc1ccc(O)cc1)NC(=O)[C@H](CCCCN)NC(=O)[C@H](CO)NC(=O)[C@H](Cc1ccc(O)cc1)NC(=O)[C@H](CC(=O)O)NC(=O)[C@H](CO)NC(=O)[C@@H](NC(=O)[C@H](Cc1ccccc1)NC(=O)[C@@H](NC(=O)CNC(=O)[C@H](CCC(N)=O)NC(=O)[C@H](CO)NC(=O)[C@@H](N)Cc1c[nH]cn1)[C@@H](C)O)[C@@H](C)O)C(C)C)C(=O)N[C@@H](CCCNC(=N)N)C(=O)N[C@H](C(N)=O)[C@@H](C)O [Peptide 8],0.017 ± 0.001 nM,0.038 ± 0.01 nM,–
CSCC[C@H](NC(=O)[C@H](CC(C)C)NC(=O)[C@H](Cc1c[nH]c2ccccc12)NC(=O)[C@H](CCC(N)=O)NC(=O)[C@@H](NC(=O)[C@H](Cc1ccccc1)NC(=O)[C@H](CC(=O)O)NC(=O)[C@H](Cc1ccc(O)cc1)NC(=O)[C@H](C)NC(=O)[C@H](CCCNC(=N)N)NC(=O)[C@H](CC(C)C)NC(=O)[C@H](CCC(=O)O)NC(=O)[C@H](CC(=O)O)NC(=O)[C@H](CC(C)C)NC(=O)[C@H](Cc1ccc(O)cc1)NC(=O)[C@H](CCCCN)NC(=O)[C@H](CO)NC(=O)[C@H](Cc1ccc(O)cc1)NC(=O)[C@H](CC(=O)O)NC(=O)[C@H](CO)NC(=O)[C@@H](NC(=O)[C@H](Cc1ccccc1)NC(=O)[C@@H](NC(=O)CNC(=O)[C@H](CCC(N)=O)NC(=O)[C@H](CO)NC(=O)[C@@H](N)Cc1c[nH]cn1)[C@@H](C)O)[C@@H](C)O)C(C)C)C(=O)N[C@@H](CC(N)=O)C(=O)N[C@H](C(N)=O)[C@@H](C)O [Peptide 10] (H-HSQGTFTSDYSKYLDELRAYDFVQWLMNT-NH2),0.038 ± 0.009 nM,0.057 ± 0.021 nM,–
CC(C)C[C@H](NC(=O)[C@H](Cc1ccc(O)cc1)NC(=O)[C@H](CCCCN)NC(=O)[C@H](CO)NC(=O)[C@H](Cc1ccc(O)cc1)NC(=O)[C@H](CC(=O)O)NC(=O)[C@H](CO)NC(=O)[C@@H](NC(=O)[C@H](Cc1ccccc1)NC(=O)[C@@H](NC(=O)CNC(=O)[C@H](CCC(N)=O)NC(=O)[C@H](CO)NC(=O)[C@@H](N)Cc1c[nH]cn1)[C@@H](C)O)[C@@H](C)O)C(=O)N[C@@H](CC(=O)O)C(=O)N[C@@H](CO)C(=O)N[C@@H](CCCNC(=N)N)C(=O)N[C@@H](CCCNC(=N)N)C(=O)N[C@@H](C)C(=O)N[C@@H](Cc1c[nH]cn1)C(=O)N[C@@H](CC(=O)O)C(=O)N[C@@H](Cc1ccccc1)C(=O)N[C@H](C(=O)N[C@@H](CCC(N)=O)C(=O)N[C@@H](Cc1c[nH]c2ccccc12)C(=O)N[C@@H](CC(C)C)C(=O)N[C@@H](CC(C)C)C(=O)N[C@@H](CC(N)=O)C(=O)N[C@H](C(N)=O)[C@@H](C)O)C(C)C [Peptide 11] (H-HSQGTFTSDYSKYLDSRRAHDFVQWLLNT-NH2),0.018 ± 0.001 nM,0.018 ± 0.005 nM,–
CC[C@H](C)[C@H](NC(=O)[C@H](CC(C)C)NC(=O)[C@H](Cc1c[nH]c2ccccc12)NC(=O)[C@H](CCC(N)=O)NC(=O)[C@@H](NC(=O)[C@H](Cc1ccccc1)NC(=O)[C@H](CC(=O)O)NC(=O)[C@H](CCC(N)=O)NC(=O)[C@H](C)NC(=O)[C@H](CCCNC(=N)N)NC(=O)[C@H](CCCNC(=N)N)NC(=O)[C@H](CO)NC(=O)[C@H](CC(=O)O)NC(=O)[C@H](CC(C)C)NC(=O)[C@H](Cc1ccc(O)cc1)NC(=O)[C@H](CCCCN)NC(=O)[C@H](CO)NC(=O)[C@H](Cc1ccc(O)cc1)NC(=O)[C@H](CC(=O)O)NC(=O)[C@H](CO)NC(=O)[C@@H](NC(=O)[C@H](Cc1ccccc1)NC(=O)[C@@H](NC(=O)CNC(=O)[C@H](CCC(N)=O)NC(=O)[C@H](CO)NC(=O)[C@@H](N)Cc1c[nH]cn1)[C@@H](C)O)[C@@H](C)O)C(C)C)C(=O)N[C@@H](CC(N)=O)C(=O)N[C@@H](Cc1ccc(O)cc1)C(N)=O [Peptide 13],0.039 ± 0.008 nM,0.078 ± 0.05 nM,–
CSCC[C@H](NC(=O)[C@H](CO)NC(=O)[C@H](C)N)C(=O)N[C@@H](Cc1ccccc1)C(=O)N[C@H](C(=O)N[C@@H](Cc1ccccc1)C(=O)N[C@@H](Cc1ccccc1)C(=O)N[C@@H](CO)C(=O)N[C@@H](CC(=O)O)C(=O)N[C@@H](Cc1ccc(O)cc1)C(=O)N[C@@H](CO)C(=O)N[C@@H](CCCCN)C(=O)N[C@@H](Cc1ccc(O)cc1)C(=O)N[C@@H](CC(C)C)C(=O)N[C@@H](CC(=O)O)C(=O)N[C@@H](CO)C(=O)N[C@@H](CCCNC(=N)N)C(=O)N[C@@H](CCCNC(=N)N)C(=O)N[C@@H](C)C(=O)N[C@@H](CCC(N)=O)C(=O)N[C@@H](CC(=O)O)C(=O)N[C@@H](Cc1ccccc1)C(=O)N[C@H](C(=O)N[C@@H](CCC(N)=O)C(=O)N[C@@H](Cc1c[nH]c2ccccc12)C(=O)N[C@@H](CC(C)C)C(=O)N[C@@H](CCSC)C(=O)N[C@@H](CC(C)C)C(=O)N[C@H](C(N)=O)[C@@H](C)O)C(C)C)[C@@H](C)O [Peptide 15] (H-ASMFTFFSDYSKYLDSRRAQDFVQWLMLT-NH2; N-terminus assumed),> 200 nM,> 20 nM,did not activate
CSCC[C@H](NC(=O)[C@H](CC(C)C)NC(=O)[C@H](Cc1c[nH]c2ccccc12)NC(=O)[C@H](CCC(N)=O)NC(=O)[C@@H](NC(=O)[C@H](Cc1ccccc1)NC(=O)[C@H](CC(=O)O)NC(=O)[C@H](CCC(N)=O)NC(=O)[C@H](C)NC(=O)[C@H](CCCNC(=N)N)NC(=O)[C@H](CCCNC(=N)N)NC(=O)[C@H](CO)NC(=O)[C@H](CC(=O)O)NC(=O)[C@H](CC(C)C)NC(=O)[C@H](Cc1ccc(O)cc1)NC(=O)[C@H](Cc1ccc(O)cc1)NC(=O)[C@H](Cc1ccc(O)cc1)NC(=O)[C@H](Cc1ccc(O)cc1)NC(=O)[C@H](CC(=O)O)NC(=O)[C@H](Cc1c[nH]cn1)NC(=O)[C@H](CC(C)C)NC(=O)[C@H](Cc1ccccc1)NC(=O)[C@@H](NC(=O)CNC(=O)[C@H](CCC(N)=O)NC(=O)[C@H](CO)NC(=O)[C@@H](N)Cc1c[nH]cn1)[C@@H](C)O)C(C)C)C(=O)N[C@@H](CC(=O)O)C(=O)N[C@H](C(N)=O)[C@@H](C)O [Peptide 17] (H-HSQGTFLHDYYYYLDSRRAQDFVQWLMDT-NH2),> 200 nM,0.527 ± 0.315 nM,–
CC[C@H](C)[C@H](NC(=O)[C@H](CO)NC(=O)[C@H](CC(=O)O)NC(=O)[C@H](CC(C)C)NC(=O)[C@H](Cc1ccc(O)cc1)NC(=O)[C@H](CCCCN)NC(=O)[C@H](CO)NC(=O)[C@H](Cc1ccc(O)cc1)NC(=O)[C@H](CC(=O)O)NC(=O)[C@H](CO)NC(=O)[C@@H](NC(=O)[C@H](Cc1ccccc1)NC(=O)[C@@H](NC(=O)CNC(=O)[C@H](CCC(N)=O)NC(=O)[C@H](CO)NC(=O)[C@@H](N)Cc1c[nH]cn1)[C@@H](C)O)[C@@H](C)O)C(=O)N[C@@H](CCCNC(=N)N)C(=O)N[C@@H](C)C(=O)N[C@@H](CCC(N)=O)C(=O)N[C@@H](CC(=O)O)C(=O)N[C@@H](Cc1ccccc1)C(=O)N[C@H](C(=O)N[C@@H](CCC(N)=O)C(=O)N[C@@H](Cc1c[nH]c2ccccc12)C(=O)N[C@@H](CC(C)C)C(=O)N[C@@H](CCSC)C(=O)N[C@@H](CC(=O)O)C(=O)N[C@H](C(N)=O)[C@@H](C)O)C(C)C [Peptide 18] (H-HSQGTFTSDYSKYLDSIRAQDFVQWLMDT-NH2),0.056 ± 0.012 nM,0.037 ± 0.011 nM,–
CSCC[C@H](NC(=O)[C@H](CC(C)C)NC(=O)[C@H](Cc1c[nH]c2ccccc12)NC(=O)[C@H](CCC(N)=O)NC(=O)[C@@H](NC(=O)[C@H](Cc1ccccc1)NC(=O)[C@H](CC(=O)O)NC(=O)[C@H](CCC(N)=O)NC(=O)[C@H](C)NC(=O)[C@H](CCCNC(=N)N)NC(=O)[C@H](CCCNC(=N)N)NC(=O)[C@H](CO)NC(=O)[C@H](CC(=O)O)NC(=O)[C@H](CC(C)C)NC(=O)[C@H](Cc1ccc(O)cc1)NC(=O)[C@H](CCCCN)NC(=O)[C@H](CO)NC(=O)[C@H](Cc1ccc(O)cc1)NC(=O)[C@H](CC(=O)O)NC(=O)[C@H](CO)NC(=O)[C@@H](NC(=O)[C@H](Cc1ccccc1)NC(=O)[C@@H](NC(=O)[C@H](Cc1ccccc1)NC(=O)[C@H](CCC(N)=O)NC(=O)CNC(=O)[C@H](CC(C)C)NC(=O)[C@H](C)NC(=O)[C@@H](N)CCCCN)[C@@H](C)O)[C@@H](C)O)C(C)C)C(=O)N[C@@H](CC(N)=O)C(=O)N[C@H](C(N)=O)[C@@H](C)O [Peptide 21] (H-KALGQFTFTSDYSKYLDSRRAQDFVQWLMNT-NH2),14.8 ± 11.4 nM,4.18 ± 1.13 nM,–
